Key:
Assay type in all cases: cell-based
[1] = tested on: HBL100 cells (human mammary epithelium); assay: Cell adhesion test to immobilized peptides, HBL100
Method: (§1) Dose-dependent cell adhesion of cell line HBL100 to various peptides 1, 2 and 3. The peptides were immobilized in 96-well plates at the concentrations given on the abscissa. 8×10^4 cells were deposited in each well and plates were incubated at 37° C. for 1 hour. After washing, attached cells were fixed and cell adhesion was measured as described in the methodology section.
(§2) Peptides 1, 2 and 3 were used for the cell adhesion experiments. A range of 7 decreasing concentrations (100 micrograms/ml, 50 micrograms/ml, 25 micrograms/ml, 12.5 micrograms/ml, 6.25 micrograms/ml, 3.125 micrograms/ml and 1.562 micrograms/ml) was made up by successive dilution in PBS (Phosphate Buffer Saline, KH2PO4 1.54 mM; Na2HPO4 1.42 mM; NaCl-131 mM) using a starting solution at a concentration of 1 mg/ml. These solutions were immediately distributed onto a 96-well culture plate (Greinher, Dutscher, Brumath, France) at a rate of 100 μl per well. Plates were then placed at +4° C. for 16 to 18 hours. The solutions were then removed by turning the plates and each well was saturated with a 1% PBS-BSA solution (bovine serum albumin). Three additional wells without the substrate underwent the same treatment and were used as blanks.
(§3) Epithelial cells were detached from the culture dishes using a trypsin/EDAT solution (0.05-0.02%) then suspended in DMEM medium without additives for the cell lines and in KBM-2 without additive for human keratinocytes. The number of seeded cells per well is given in the graphs (50,000 to 100,000 cells per well).
(§4) After cell seeding, the multi-well plates were placed in an incubator at 37° C. under 5% CO2. After incubation for 30 to 60 minutes, cells were observed under a phase contrast microscope in order to verify that the test was conducted correctly. The adhesion medium was then removed and each well was washed in a sterile PBS solution to remove non-adhering cells. The remaining cells, attached to the substrate, were then fixed using a solution of 1% glutaraldehyde in PBS for 15 minutes. The glutaraldehyde solution as removed and the cells were stained with a crystal violet solution diluted to 1% in distilled water for 30 minutes.
(§5) After rinsing in water several times, cells were permeabilized by means of a 0.02% triton solution for 15 minutes in order to solubilize the crystal violet. Absorbances were read at 570 nm using an ELISA plate reader (MR500, Dynatech, Guernsey, Channel Islands). Each experimental point was carried out in triplicate. The blank value represented the mean absorbance of 3 control wells (BSA). This was subtracted from each of the optical density values for the experimental points. We then calculated the mean for the three absorbance values for each of the triplicate samples.
(§6) The results are presented in the form of a graph with the absorbance values on the ordinate and the various substrate concentrations on the abscissa. Attached cells were photographed by phase contrast microscopy.
(§7) The following cells from epithelial cell lines were used initially (commonly used in preliminary studies on cell adhesion): • line HT1080 cells (human fibrosarcoma), American Type Culture Collection CCL-121. • line HB100 cells (human mammary epithelium), American Type Culture Collection HTB-124. • line A431 cells (skin epitheliods), American Type Culture Collection CRL-1555.

[2] = tested on: normal human keratinocytes; assay: Cell adhesion test to immobilized peptides, normal human keratinocytes
Method: as §1, with “normal human keratinocytes” for “cell line HBL100”, “10^5” for “8×10^4”
as §2, §3, §4, §5, §6
Freshly isolated normal human keratinocytes were used in a second experiment. As the basal keratinocytes of the epidermis are in direct contact with LN-5 in the skin, it was necessary to test their adhesion capacity to the peptide in question. Human keratinocytes were obtained from a foreskin biopsy (surgery waste, Pavillon T-Bis, Eduard Herriot Hospital). […]

A431 cells = assay: Cell proliferation test (XTT), A431; details: A431, peptide 0.5% and 1%, serum-free medium, 5th hour
Method: A431 cells were seeded in 96-well plates at a rate of 10,000 cells per well. After 24 hours, the culture medium was removed and replaced with serum-free medium containing the peptide quantities given in the graphs and reagent XTT. The plates were then placed in the incubator at 37° C. and absorbance readings were taken at 1 h, 2 h, 3 h, 4 h and 5 h. Peptide-free controls were carried out on the same plate.
The effect of the peptide on cell proliferation was analysed with the aid of a calorimetric test (Cell Proliferation Kit XTT, Roche Diagnostics, Meylan, France) on the cells use for the cell adhesion test, i.e. HT1080, A431, HBL100 cells and normal human keratinocytes from young and elderly individuals.
The chemical reaction used in the test is based on the production of NADPH by living cells, leading to the reduction of yellow tetrazolium XTT salts to orange formazan salts. Absorbance was measured at 490 nm using an ELISA plate reader. […] After 24 hours in culture at 37° C. with 5% CO2, the culture medium was removed and replaced with serum-free medium containing the peptide quantities given in the graphs and the test reagent. The plates were then placed in the incubator at 37° C. and absorbance readings were taken at 1 h, 2 h, 3 h, 4 h and 5 h. […] In this case, cell viability was calculated according to the following formula: % viability=(Abs. Cells with peptide/Abs. Control cells)×100.

[3] = tested on: A431 cells (skin epitheloids); assay: Cell adhesion test to immobilized peptides, A431
Method: as §1, with “A431” for “HBL100”
as §2, §3, §4, §5, §6, §7

TALRIRATYGEY (Human laminin 5) [Peptide 1]
cell adhesion to immobilized peptide ([1]; HBL100, 0 to 10 micrograms immobilized peptide, 8×10^4 cells per well, 1 hour 37° C., absorbance 570 nm): led to cell adhesion | immobilized peptide quantity at which adhesion occurred ([1]; HBL100, FIG. 2): 0.31 micrograms | immobilized peptide quantity at which maximum adhesion was achieved ([1]; HBL100, FIG. 2): 1.25 micrograms | cell adhesion to immobilized peptide ([2]; 0 to 10 micrograms immobilized peptide, 10^5 cells per well, 1 hour 37° C., absorbance 570 nm): effect also occurred | immobilized peptide quantity at which adhesion occurred ([2]; FIG. 5): 0.15 micrograms | immobilized peptide quantity at which maximum adhesion was achieved ([2]; FIG. 5): 0.62 micrograms | mean increase in cell proliferation compared to the control (A431 cells): 8% | immobilized peptide quantity at which adhesion occurred ([3]; A431): 0.62 micrograms | immobilized peptide quantity at which maximum adhesion was achieved ([3]; A431): 1.2 micrograms | cell adhesion to immobilized peptide ([3]; A431, 0 to 10 micrograms immobilized peptide, 8×10^4 cells per well, 1 hour 37° C., absorbance 570 nm): led to cell adhesion
